# According to patent US10213470B2, “Method for treating spinocerebellar ataxias” (NATIONAL TAIWAN NORMAL UNIVERSITY, priority 2015, dated 2019):
# What was measured:
# [1] = system: ATXN3/Q75 aggregation in 293 ATXN3/Q75-GFP cells; experiment: ATXN3/Q75 aggregation analysis by high-content analysis in 293 ATXN3/Q75-GFP cells; format: cell-based, Human; settings: at 100 nM; 8 h pre-treatment, then doxycycline and oxaliplatin 6 days
# Procedure: (§1) Human 293 ATXN3/Q75-GFP cells were cultured in Dulbecco's modified Eagle's medium (DMEM) containing 10% fetal bovine serum (FBS), 5 μg/mL blasticidin, and 100 μg/mL hygromycin (InvivoGen). Human neuroblastoma SH-SY5Y cells (ATCC No. CRL-2266) were cultured in DMEM F12 supplemented with 10% FBS. Mouse RAW 264.7 macrophages and BV-2 microglia were cultured in DMEM containing 10% FBS. Cells were all cultured in a 37° C. incubator containing 5% CO2.
# 293 ATXN3/Q75-GFP cells were cultured in 96-well (2×10^4/well) plates for 24 h and treated with different concentrations of suberoylanilide hydroxamic acid (SAHA, Cayman Chemical) (100 nM), Paeonia lactiflora, Glycyrrhiza uralensis, or Shao Yao Kan Tsao Tang (SK Tang) (0.01-10 μg/mL) for 8 h. Next, doxycycline (10 μg/mL, BD) and oxaliplatin (5 μM, Sigma) were added for 6 days. Cells were then stained with Hoechst 33342 (0.1 μg/mL, Sigma-Aldrich). Aggregation was then analyzed by high-content analysis (HCA) system (ImageXpressMICRO, Molecular Devices). The histone deacetylase inhibitor SAHA, known to reduce SDS-insoluble polyQ aggregates, was included for comparison.
# To normalize data, the relative aggregation level in untreated cells is set as 100%. […] Good aggregation-inhibitory potential can be seen from Paeonia lactiflora (75-78% at 1-10 μg/mL), Glycyrrhiza uralensis (73-85% at 0.01-1 μg/mL), and SK Tang (79-84% at 0.01-10 μg/mL). […]
# [2] = system: IL-6; experiment: IL-6 secretion in LPS-stimulated RAW 264.7 macrophages (ELISA); format: cell-based, Mouse; settings: 50 μM, 8 h pre-treatment, LPS 1 μg/mL 20 h
# Procedure: as §1
# (§2) The anti-inflammatory activity of SK Tang was examined using LPS-stimulated RAW 264.7 macrophage and BV-2 microglia. RAW 264.7 cells (10^6) were cultured in 6-well plates for 20 h and pre-treated with celecoxib, which is a nonsteroidal anti-inflammatory drug (named as Cele. in FIGS. 4A-4D) (50 μM) or SK Tang (0.5-2 mg/mL) for 8 h. Next, cells were stimulated by LPS (1 μg/mL) for 20 h. LPS-induced secretions of NO, TNF-α, IL-1β, and IL-6 in RAW 264.7 cells were then determined using Griess reagent or ELISA assay.
# (§3) To normalize data, the relative NO/TNF-α/IL-1β/IL-6 level in LPS-stimulated cells is set as 100%. As shown in FIGS. 4A-4D, the exposure of RAW 264.7 cells to LPS results in significant secretions of NO, TNF-α, IL-1β, and IL-6 after 24 h incubation (1-12% vs. 100%, P<0.001). […]
# [3] = system: IL-1β; experiment: IL-1β secretion in LPS-stimulated RAW 264.7 macrophages (ELISA); format: cell-based, Mouse; settings: 50 μM, 8 h pre-treatment, LPS 1 μg/mL 20 h
# Procedure: as §1, §2, §3
# [4] = system: NO; experiment: NO secretion in LPS-stimulated RAW 264.7 macrophages (Griess reagent); format: cell-based, Mouse; settings: 50 μM, 8 h pre-treatment, LPS 1 μg/mL 20 h
# Procedure: as §1, §2, §3
# [5] = system: TNF-α; experiment: TNF-α secretion in LPS-stimulated RAW 264.7 macrophages (ELISA); format: cell-based, Mouse; settings: 50 μM, 8 h pre-treatment, LPS 1 μg/mL 20 h
# Procedure: as §1, §2, §3
Structure (SMILES),ATXN3/Q75 aggregation relative to untreated cells (100%) [1] [%],IL-6 level relative to LPS-stimulated cells (100%) [2] [%],IL-1β level relative to LPS-stimulated cells (100%) [3] [%],NO level relative to LPS-stimulated cells (100%) [4] [%],TNF-α level relative to LPS-stimulated cells (100%) [5] [%]
"O=C(CCCCCCC(=O)Nc1ccccc1)NO [SAHA, suberoylanilide hydroxamic acid]",85,–,–,–,–
Cc1ccc(-c2cc(C(F)(F)F)nn2-c2ccc(S(N)(=O)=O)cc2)cc1 [celecoxib],–,29,20,39,23
